# In ChEMBL document CHEMBL1201862, “PubChem BioAssay data set” (2004):
# Calls of active or inactive are those of the source.
# Experiments:
# [1] = CCR5-tropic HIV-1 fusion blockers – cell-based, CCR5-tropic Env, dose response (AID 2279); format: functional
# [2] = blockers of HIV-1 envelope-mediated cell-cell fusion – cherry-pick, dose response (AID 652057); format: functional, cell-based
# [3] = molecular target: T1, High affinity choline transporter 1 (Homo sapiens, UniProt Q9GZV3); test: human choline transporter blockers, potency – cell-based, 5-point CRC, membrane potential dye, dose response (AID 504840); format: functional
# T1 sequence (Q9GZV3 whole entry): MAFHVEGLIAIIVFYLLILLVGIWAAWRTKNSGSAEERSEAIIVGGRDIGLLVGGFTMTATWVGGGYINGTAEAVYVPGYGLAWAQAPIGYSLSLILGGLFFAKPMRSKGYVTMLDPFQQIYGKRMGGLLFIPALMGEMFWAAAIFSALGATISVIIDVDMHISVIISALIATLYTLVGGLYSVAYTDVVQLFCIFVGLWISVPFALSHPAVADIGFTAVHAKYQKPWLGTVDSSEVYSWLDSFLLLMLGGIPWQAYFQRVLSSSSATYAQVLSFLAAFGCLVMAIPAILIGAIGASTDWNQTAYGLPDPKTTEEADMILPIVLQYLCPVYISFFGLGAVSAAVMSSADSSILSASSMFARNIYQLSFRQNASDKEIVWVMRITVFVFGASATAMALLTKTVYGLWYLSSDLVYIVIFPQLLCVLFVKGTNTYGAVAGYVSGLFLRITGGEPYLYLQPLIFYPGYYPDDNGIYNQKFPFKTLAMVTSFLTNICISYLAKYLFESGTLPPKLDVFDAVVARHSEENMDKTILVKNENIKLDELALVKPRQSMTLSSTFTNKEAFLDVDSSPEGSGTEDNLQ
# [4] = HIV-1 AD8 envelope cell-cell fusion blockers – cherry-pick, dose response (AID 652062); format: functional, cell-based;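 further: luciferase signal from cell-cell fusion driven by HIV-1 clade B AD8 Env; potency is for inhibitors of fusion seen as a drop in luminescence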
# Aminopeptidase N = molecular target: T2, Aminopeptidase N (Plasmodium falciparum FcB1/Columbia, UniProt O96935); test: malaria alanyl aminopeptidase activity blockers – biochemical, fluorogenic H-Leu-NHMec substrate, 1536-well (AID 1445); design: species or system Plasmodium falciparum 3D7, 3D7
# T2 sequence (O96935 whole entry): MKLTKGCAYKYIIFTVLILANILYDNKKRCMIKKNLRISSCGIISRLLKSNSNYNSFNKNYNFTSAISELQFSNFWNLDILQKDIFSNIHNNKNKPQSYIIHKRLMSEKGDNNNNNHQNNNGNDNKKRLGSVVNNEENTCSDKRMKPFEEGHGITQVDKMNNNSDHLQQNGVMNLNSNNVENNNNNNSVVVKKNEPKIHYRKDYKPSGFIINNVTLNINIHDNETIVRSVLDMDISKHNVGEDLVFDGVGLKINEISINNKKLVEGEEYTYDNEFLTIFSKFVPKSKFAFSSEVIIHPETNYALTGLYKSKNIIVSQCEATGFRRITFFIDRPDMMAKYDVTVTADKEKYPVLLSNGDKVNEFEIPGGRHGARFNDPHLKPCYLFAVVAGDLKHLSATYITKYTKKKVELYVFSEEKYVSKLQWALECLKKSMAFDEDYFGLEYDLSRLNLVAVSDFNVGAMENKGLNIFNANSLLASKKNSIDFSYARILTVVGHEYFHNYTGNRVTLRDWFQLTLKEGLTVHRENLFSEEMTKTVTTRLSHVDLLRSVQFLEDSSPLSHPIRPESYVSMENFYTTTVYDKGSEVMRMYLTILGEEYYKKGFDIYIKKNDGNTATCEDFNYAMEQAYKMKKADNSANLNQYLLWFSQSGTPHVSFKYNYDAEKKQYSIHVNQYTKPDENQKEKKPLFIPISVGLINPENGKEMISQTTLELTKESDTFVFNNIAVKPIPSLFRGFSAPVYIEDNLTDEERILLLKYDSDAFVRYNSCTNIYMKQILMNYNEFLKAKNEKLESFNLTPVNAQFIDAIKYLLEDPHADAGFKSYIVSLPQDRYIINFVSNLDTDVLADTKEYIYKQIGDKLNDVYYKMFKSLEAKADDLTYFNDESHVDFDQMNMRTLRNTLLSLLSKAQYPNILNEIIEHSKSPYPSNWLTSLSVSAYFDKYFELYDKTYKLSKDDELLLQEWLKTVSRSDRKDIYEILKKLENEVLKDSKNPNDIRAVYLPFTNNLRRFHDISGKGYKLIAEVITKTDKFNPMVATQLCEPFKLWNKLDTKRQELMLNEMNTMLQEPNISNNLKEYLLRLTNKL
# [5] = off-target signal loss in HeLa-CEM21 co-culture – HeLa F-luc CTL cells, cherry-picked, counter-screen for HIV-1 Env fusion inhibitor project, dose response (AID 652040); format: functional, cell-based;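 further: potency for signal decrease marking cytotoxic or nonspecific inhibition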
# [6] = molecular target: T3, Alkaline phosphatase, tissue-nonspecific isozyme (Homo sapiens, UniProt P05186)
# T3 sequence (P05186 whole entry): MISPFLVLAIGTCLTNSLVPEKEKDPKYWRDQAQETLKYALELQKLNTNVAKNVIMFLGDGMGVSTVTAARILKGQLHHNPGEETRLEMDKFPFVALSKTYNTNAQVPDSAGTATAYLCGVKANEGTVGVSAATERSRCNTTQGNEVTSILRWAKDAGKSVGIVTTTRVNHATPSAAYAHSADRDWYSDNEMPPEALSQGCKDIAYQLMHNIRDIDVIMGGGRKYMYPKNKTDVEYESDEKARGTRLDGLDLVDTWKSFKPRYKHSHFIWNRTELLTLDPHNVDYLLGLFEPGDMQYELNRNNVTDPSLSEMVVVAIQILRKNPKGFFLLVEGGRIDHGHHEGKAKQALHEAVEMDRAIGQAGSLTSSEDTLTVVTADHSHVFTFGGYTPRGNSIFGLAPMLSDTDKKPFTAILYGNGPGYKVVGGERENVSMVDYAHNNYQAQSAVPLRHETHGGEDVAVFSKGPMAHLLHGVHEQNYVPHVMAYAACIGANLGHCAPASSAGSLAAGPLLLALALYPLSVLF
# Nonstructural protein 1 = Nonstructural protein 1 (Influenza A virus, UniProt Q194T2); format: functional, Influenza A virus (A/California/07/2009(H1N1))
# [7] = molecular target: Heat shock cognate 71 kDa protein (Homo sapiens, UniProt P11142); test: In Vitro Hsc70 Dose Response Fluorescence Polarization Assay. [Related pubchem assays: 1072 ]
# [8] = molecular target: Heat shock 70 kDa protein 1A (Homo sapiens, UniProt P0DMV8); test: inhibition of Hsp70 binding activity – biochemical, fluorescence polarization, SAR follow-up (AID 1072)
# [9] = molecular target: Melanin-concentrating hormone receptor 1 (Homo sapiens, UniProt Q99705); test: Fluorescence-based counterscreen for antagonists of the G-protein coupled receptor 7 (GPR7): cell-based high throughput dose response assay to identify antagonists of the melanin-concentrating hormone receptor 1 (MCHR1).; format: functional
# [10] = molecular target: T4, Neuropeptides B/W receptor type 1 (Homo sapiens, UniProt P48145); test: Fluorescence-based dose response cell-based high throughput screening assay to identify antagonists of the G-protein coupled receptor 7 (GPR7). [Related pubchem assays: 1952 (Screening assay (GPR7 antagonists).), 1880 (Summary AID.)]; format: functional
# T4 sequence (P48145 whole entry): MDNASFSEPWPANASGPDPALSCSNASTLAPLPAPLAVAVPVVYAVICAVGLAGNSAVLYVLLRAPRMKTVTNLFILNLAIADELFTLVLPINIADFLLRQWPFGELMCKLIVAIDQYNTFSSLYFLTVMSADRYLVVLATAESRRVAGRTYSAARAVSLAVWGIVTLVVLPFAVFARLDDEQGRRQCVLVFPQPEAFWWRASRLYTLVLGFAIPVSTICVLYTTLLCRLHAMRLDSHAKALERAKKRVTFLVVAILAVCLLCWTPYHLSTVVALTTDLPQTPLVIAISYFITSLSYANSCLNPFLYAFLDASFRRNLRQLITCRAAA
# Sequence of Heat shock cognate 71 kDa protein (P11142 whole entry): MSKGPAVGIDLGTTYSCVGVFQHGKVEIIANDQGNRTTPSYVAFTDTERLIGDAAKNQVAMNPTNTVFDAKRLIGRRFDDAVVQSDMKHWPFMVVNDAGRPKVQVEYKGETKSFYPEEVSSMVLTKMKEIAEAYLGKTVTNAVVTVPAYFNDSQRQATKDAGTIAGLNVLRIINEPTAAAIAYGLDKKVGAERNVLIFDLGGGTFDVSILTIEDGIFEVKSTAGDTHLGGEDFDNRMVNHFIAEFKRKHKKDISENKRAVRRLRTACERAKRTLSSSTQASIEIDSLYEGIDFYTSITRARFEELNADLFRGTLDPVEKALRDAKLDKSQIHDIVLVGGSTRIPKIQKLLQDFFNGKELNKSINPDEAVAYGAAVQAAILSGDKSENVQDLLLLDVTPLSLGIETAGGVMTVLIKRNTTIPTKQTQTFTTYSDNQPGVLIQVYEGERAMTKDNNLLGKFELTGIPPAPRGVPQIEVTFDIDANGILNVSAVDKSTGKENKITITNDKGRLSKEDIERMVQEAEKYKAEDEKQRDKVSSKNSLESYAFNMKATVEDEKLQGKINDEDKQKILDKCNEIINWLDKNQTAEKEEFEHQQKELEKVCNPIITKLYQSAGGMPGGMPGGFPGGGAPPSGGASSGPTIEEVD
# Sequence of Nonstructural protein 1 (Q194T2 whole entry): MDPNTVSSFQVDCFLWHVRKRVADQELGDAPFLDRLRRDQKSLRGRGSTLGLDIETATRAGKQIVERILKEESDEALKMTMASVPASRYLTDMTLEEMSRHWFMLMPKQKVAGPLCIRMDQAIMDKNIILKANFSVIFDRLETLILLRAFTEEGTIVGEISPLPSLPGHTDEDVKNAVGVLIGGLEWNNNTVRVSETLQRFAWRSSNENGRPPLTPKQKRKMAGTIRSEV
# Sequence of Melanin-concentrating hormone receptor 1 (Q99705 whole entry): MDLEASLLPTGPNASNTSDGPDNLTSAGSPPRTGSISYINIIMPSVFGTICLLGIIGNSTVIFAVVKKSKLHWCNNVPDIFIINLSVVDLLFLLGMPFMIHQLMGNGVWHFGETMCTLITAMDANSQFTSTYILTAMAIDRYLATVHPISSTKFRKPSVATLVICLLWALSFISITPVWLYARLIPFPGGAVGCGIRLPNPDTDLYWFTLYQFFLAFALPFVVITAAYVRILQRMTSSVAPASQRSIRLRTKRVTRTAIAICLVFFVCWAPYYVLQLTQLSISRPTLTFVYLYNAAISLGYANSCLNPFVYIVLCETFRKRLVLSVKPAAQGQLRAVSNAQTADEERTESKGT
# Sequence of Heat shock 70 kDa protein 1A (P0DMV8 whole entry): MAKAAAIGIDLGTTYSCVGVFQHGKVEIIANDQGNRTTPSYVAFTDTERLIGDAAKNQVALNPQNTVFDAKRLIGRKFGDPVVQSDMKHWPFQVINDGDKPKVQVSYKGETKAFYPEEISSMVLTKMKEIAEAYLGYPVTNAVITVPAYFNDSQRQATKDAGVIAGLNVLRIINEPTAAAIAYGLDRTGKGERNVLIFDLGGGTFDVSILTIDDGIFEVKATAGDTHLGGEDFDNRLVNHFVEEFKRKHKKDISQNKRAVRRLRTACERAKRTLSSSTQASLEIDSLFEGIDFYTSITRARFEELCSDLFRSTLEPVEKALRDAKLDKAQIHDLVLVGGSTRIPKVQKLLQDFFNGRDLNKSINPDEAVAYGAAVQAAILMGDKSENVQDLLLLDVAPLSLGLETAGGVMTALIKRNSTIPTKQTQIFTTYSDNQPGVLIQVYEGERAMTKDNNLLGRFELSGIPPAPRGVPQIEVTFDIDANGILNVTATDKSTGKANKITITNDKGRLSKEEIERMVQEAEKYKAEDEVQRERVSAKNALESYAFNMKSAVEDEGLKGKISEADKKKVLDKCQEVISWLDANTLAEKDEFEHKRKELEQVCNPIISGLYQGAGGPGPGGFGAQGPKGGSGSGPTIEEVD
smiles,measurement,setting,value
O=S(=O)(Nc1nc2ccccc2nc1Nc1cccc(S(=O)(=O)N2CCCCC2)c1)c1ccccc1,IC50,[1],5.7 µM (active)
same,AC50,[2],8.16 µM (active)
same,IC50,[3],12 µM (active)
same,AC50,[4],12 µM (active)
same,IC50,Aminopeptidase N,91.9 µM (active)
same,AC50,[5],23.9 µM (active)
Cc1c(C(=O)N(C)C)sc2[nH]c(-c3ccccn3)nc(=O)c12,EC50,[6],63.6 µM (not active)
same,IC50,Nonstructural protein 1,13.1 µM (active)
O=C1C=C2CC3(O)CCc4c(ccc(O)c4O)C3=C2C=C1O (configuration not stated),IC50,[7],> 100 µM (not active)
same,IC50,[8],34.2 µM (active)
COc1ccc(OCC(=O)Nc2ccc3c(c2)C(=O)NC3=O)cc1,IC50,[9],> 43.8 µM (not active)
same,IC50,[10],> 43.8 µM (not active)
